# According to publication PMC6017736, “Indole-3-Carbonitriles as DYRK1A Inhibitors by Fragment-Based Drug Design” (Molecules : A Journal of Synthetic Chemistry and Natural …, 2018):
# Tests used:
# [1] = molecular target: DYRK1B (Homo sapiens, UniProt Q9Y463); experiment: Protein kinase assay ([γ-33P]-ATP, RS peptide substrate), DYRK1B; assay type: biochemical; conditions: for remaining activity at 10 µM: 10 µM compound, compared to controls, read-out: Residual Activity at 10 µM DYRK 1B; for IC50: 15 µM ATP, read-out: IC50 DYRK 1B
# Sequence of DYRK1B (Q9Y463 whole entry, the tested form may be a part): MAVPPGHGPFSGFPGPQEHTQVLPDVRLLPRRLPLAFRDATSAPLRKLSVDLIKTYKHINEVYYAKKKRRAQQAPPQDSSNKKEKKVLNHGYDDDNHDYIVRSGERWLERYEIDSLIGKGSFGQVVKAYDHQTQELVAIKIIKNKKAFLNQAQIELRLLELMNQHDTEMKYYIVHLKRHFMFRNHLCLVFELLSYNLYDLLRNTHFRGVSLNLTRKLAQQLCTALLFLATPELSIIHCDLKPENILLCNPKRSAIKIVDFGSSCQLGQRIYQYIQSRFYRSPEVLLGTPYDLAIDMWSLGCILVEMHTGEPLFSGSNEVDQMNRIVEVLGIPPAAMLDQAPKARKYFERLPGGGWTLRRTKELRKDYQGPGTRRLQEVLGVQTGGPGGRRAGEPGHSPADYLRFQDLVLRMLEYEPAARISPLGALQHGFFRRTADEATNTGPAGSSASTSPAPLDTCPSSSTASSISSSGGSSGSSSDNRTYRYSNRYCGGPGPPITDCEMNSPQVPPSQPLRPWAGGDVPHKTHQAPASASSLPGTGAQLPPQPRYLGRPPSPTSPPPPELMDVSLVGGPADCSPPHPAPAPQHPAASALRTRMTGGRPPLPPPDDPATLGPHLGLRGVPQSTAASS
# Experimental: (§1) DYRK1A, 1B, 2, 3 (human, recombinant, expressed in E. coli as GST fusion proteins) and CLK1, 2, 3, and 4 (mouse, recombinant, expressed in E. coli as GST fusion proteins) were assayed as described for GSK-3 in Buffer A (supplemented extemporaneously with 0.15 mg BSA/mL + 1 mM DTT) with 1 µg of RS peptide ([…]) as a substrate.
# [2] = molecular target: T1, DYRK2 (Homo sapiens, UniProt Q92630); experiment: Protein kinase assay ([γ-33P]-ATP, RS peptide substrate), DYRK2; assay type: biochemical; conditions: for remaining activity at 10 µM: 10 µM compound, compared to controls, read-out: Residual Activity at 10 µM DYRK2; for IC50: 15 µM ATP
# T1 sequence (Q92630 1-601): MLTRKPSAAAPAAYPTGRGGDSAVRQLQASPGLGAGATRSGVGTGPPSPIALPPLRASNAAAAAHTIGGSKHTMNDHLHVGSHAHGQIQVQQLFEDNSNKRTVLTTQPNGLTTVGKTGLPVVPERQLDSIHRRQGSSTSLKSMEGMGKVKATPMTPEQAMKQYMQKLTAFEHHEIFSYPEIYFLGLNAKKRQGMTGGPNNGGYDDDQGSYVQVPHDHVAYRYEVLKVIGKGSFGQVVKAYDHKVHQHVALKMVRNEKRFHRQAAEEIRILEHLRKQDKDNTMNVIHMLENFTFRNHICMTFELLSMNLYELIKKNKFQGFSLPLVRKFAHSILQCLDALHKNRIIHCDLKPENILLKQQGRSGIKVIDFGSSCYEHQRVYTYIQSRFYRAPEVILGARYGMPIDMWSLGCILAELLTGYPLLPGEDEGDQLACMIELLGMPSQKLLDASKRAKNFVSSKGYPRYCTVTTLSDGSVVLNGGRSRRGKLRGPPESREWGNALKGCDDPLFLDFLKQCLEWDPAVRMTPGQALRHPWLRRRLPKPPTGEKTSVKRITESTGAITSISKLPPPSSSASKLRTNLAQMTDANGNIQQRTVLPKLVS
# Experimental: as §1
# [3] = molecular target: CLK3 (Mus musculus, UniProt O35492); experiment: Protein kinase assay ([γ-33P]-ATP, RS peptide substrate), CLK3; assay type: biochemical; conditions: for remaining activity at 10 µM: 10 µM compound, compared to controls, read-out: Residual Activity at 10 µM CLK3; for IC50: 15 µM ATP
# Sequence of CLK3 (O35492 whole entry): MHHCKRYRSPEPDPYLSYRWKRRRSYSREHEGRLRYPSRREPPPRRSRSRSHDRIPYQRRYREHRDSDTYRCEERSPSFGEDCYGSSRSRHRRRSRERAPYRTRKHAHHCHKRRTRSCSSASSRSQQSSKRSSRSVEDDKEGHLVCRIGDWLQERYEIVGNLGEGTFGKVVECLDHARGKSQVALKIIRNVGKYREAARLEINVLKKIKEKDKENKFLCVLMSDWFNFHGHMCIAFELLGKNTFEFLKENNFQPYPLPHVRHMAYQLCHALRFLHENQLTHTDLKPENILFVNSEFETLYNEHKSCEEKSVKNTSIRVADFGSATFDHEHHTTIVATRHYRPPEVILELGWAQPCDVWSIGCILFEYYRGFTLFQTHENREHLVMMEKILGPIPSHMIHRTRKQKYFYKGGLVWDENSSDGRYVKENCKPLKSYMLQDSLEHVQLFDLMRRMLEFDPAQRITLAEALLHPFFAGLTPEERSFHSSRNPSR
# Experimental: as §1
# [4] = molecular target: CLK1 (Mus musculus, UniProt P22518); experiment: Protein kinase assay ([γ-33P]-ATP, RS peptide substrate), CLK1; assay type: biochemical; conditions: for remaining activity at 10 µM: 10 µM compound, compared to controls, read-out: Residual Activity at 10 µM CLK1; for IC50: 15 µM ATP
# Sequence of CLK1 (P22518 whole entry): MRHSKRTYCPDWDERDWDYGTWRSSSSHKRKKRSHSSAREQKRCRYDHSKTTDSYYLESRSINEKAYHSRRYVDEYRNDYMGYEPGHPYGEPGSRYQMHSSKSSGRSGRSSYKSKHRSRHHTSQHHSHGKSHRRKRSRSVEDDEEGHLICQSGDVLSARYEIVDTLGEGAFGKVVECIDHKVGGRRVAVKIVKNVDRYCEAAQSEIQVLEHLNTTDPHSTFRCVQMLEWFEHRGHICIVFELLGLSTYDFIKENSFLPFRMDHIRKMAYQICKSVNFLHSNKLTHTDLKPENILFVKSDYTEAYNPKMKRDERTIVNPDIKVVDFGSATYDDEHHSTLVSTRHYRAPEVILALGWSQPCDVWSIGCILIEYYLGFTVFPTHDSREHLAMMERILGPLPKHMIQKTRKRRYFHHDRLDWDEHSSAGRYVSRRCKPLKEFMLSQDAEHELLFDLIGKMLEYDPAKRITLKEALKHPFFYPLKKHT
# Experimental: as §1
# [5] = molecular target: CLK2 (Mus musculus, UniProt O35491); experiment: Protein kinase assay ([γ-33P]-ATP, RS peptide substrate), CLK2; assay type: biochemical; conditions: for remaining activity at 10 µM: 10 µM compound, compared to controls, read-out: Residual Activity at 10 µM CLK2; for IC50: 15 µM ATP
# Sequence of CLK2 (O35491 whole entry): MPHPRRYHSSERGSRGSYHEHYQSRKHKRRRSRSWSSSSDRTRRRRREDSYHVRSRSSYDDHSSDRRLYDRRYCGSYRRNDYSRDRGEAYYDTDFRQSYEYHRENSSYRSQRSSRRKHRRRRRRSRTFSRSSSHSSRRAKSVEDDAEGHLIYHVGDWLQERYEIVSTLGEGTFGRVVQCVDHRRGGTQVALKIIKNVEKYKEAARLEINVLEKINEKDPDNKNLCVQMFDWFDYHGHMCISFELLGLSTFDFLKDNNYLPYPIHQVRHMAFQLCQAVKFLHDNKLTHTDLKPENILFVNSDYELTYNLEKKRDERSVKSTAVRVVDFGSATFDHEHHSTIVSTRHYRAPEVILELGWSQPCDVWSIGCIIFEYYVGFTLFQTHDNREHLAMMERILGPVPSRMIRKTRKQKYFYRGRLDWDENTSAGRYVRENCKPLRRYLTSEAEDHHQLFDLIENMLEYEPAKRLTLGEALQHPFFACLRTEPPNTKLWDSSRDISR
# Experimental: as §1
# [6] = molecular target: T2, DYRK1A (Homo sapiens, UniProt Q13627); experiment: Protein kinase assay ([γ-33P]-ATP, RS peptide substrate), DYRK1A; assay type: biochemical; conditions: for remaining activity at 10 µM: 10 µM compound, compared to controls, read-out: Residual Activity at 10 µM DYRK 1A; for IC50: 15 µM ATP, read-out: IC50 DYRK 1A
# [7] = molecular target: CLK4 (Mus musculus, UniProt O35493); experiment: Protein kinase assay ([γ-33P]-ATP, RS peptide substrate), CLK4; assay type: biochemical; conditions: for remaining activity at 10 µM: 10 µM compound, compared to controls, read-out: Residual Activity at 10 µM CLK4; for IC50: 15 µM ATP
# Sequence of CLK4 (O35493 whole entry): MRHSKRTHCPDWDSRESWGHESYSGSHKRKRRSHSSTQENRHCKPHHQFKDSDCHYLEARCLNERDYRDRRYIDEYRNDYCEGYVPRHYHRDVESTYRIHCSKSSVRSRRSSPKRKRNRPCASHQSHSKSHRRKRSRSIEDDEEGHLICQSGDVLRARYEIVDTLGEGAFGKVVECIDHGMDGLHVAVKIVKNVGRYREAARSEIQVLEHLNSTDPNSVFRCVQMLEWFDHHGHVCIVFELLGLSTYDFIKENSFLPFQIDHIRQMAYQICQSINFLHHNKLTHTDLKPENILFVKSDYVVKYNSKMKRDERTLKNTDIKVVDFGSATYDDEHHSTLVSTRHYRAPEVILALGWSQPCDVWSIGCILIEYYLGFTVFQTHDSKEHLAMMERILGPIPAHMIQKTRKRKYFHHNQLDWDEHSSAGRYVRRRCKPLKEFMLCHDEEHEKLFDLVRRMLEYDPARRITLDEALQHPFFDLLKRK
# Experimental: as §1
# [8] = molecular target: T3, DYRK3 (Homo sapiens, UniProt O43781); experiment: Protein kinase assay ([γ-33P]-ATP, RS peptide substrate), DYRK3; assay type: biochemical; conditions: for remaining activity at 10 µM: 10 µM compound, compared to controls, read-out: Residual Activity at 10 µM DYRK3; for IC50: 15 µM ATP
# T3 sequence (O43781 1-588): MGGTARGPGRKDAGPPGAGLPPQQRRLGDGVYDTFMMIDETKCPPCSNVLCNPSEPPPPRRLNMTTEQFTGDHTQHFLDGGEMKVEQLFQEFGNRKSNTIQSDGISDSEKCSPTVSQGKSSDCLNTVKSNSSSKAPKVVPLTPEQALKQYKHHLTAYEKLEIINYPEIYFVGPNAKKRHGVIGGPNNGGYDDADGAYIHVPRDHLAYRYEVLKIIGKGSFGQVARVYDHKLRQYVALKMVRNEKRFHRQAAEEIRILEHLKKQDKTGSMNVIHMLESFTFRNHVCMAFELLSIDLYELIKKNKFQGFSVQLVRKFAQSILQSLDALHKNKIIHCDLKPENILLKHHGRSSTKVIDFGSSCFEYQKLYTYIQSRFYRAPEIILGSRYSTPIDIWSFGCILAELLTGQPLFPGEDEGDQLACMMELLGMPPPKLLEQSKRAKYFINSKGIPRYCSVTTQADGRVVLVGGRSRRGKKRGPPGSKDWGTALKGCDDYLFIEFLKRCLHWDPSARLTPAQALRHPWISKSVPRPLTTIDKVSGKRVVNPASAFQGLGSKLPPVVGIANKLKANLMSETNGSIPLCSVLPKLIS
# Experimental: as §1
# [9] = tested on: GSK-3; experiment: Protein kinase assay ([γ-33P]-ATP, GS-1 substrate), GSK-3; conditions: 10 µM compound, compared to controls
# [10] = molecular target: T2, DYRK1A; experiment: Ligand-lipophilicity efficiency (pIC50 minus calculated logP); conditions: Table S2
# Experimental: All new compounds were evaluated based on their physicochemical properties regarding Lipinski’s rule of five and the ligand-lipophilicity efficiency (LLE). Both concepts are used to assess the druglikeness of drug development candidates. […] LLE is calculated from pIC50 minus calculated logP [46].
# [11] = Cytotoxicity, cell viability by tetrazolium dye assay (XTT assay); assay type: cell-based; conditions: human, HeLa cells, 1 µM, read-out: Viability of treated HeLa cells relative to control cells
# Experimental: To evaluate the applicability of the 2-substituted indole-3-carbonitrile compounds in cell culture experiments, we assessed toxicity of 6f, 6h, 6s and 13b on HeLa cells by viability assays (Table 4).
# The inhibitors were added to the cultured cells from stock solutions in DMSO to the desired final concentration. For cytotoxicity assays, HeLa cells were grown in 96-well plates (20,000–30,000 cells per well) and incubated with the test compounds for 3 days before cell viability was evaluated with the help of a tetrazolium dye assay (XTT assay, AppliChem GmbH, Darmstadt, Germany).
Structure (SMILES),remaining activity at 10 µM [1],remaining activity at 10 µM [2],remaining activity at 10 µM [3],remaining activity at 10 µM [4],remaining activity at 10 µM [5],remaining activity at 10 µM [6],remaining activity at 10 µM [7],remaining activity at 10 µM [8],IC50 [1],LLE [10],IC50 [2],IC50 [3],IC50 [4],IC50 [5],IC50 [6],IC50 [7],IC50 [8],Residual Activity at 10 µM GSK3 [9],"viability at 3 days, 1 µM [11]"
"N#Cc1c(-c2ccc(Cl)cc2)[nH]c2c(Cl)cccc12 [Compound 6i, 7-Chloro-2-(4-chlorophenyl)-1H-indole-3-carbonitrile]",,,,68%,,60%,,,,,,,,,,,,112%,
"COc1ccc(-c2[nH]c3c(Cl)cccc3c2C#N)cc1 [Compound 6j, 7-Chloro-2-(4-methoxyphenyl)-1H-indole-3-carbonitrile]",,,,47%,,60%,,,,,,,,,,,,118%,
"C=CCc1[nH]c2c(Cl)cccc2c1C#N [Compound 6k, 2-Allyl-7-chloro-1H-indole-3-carbonitrile]",,,,,,,,,1300 nM,2.77,> 10000 nM,> 10000 nM,533 nM,1300 nM,690 nM,533 nM,> 10000 nM,,
"N#Cc1c(-c2ccc(Cl)cc2)[nH]c2c(I)cccc12 [Compound 6m, 7-Iodo-2-(4-chlorophenyl)-1H-indole-3-carbonitrile]",79%,116%,130%,55%,92%,42%,36%,101%,,,,,,,,,,,
"COc1ccc(-c2[nH]c3c(I)cccc3c2C#N)cc1 [Compound 6n, 7-Iodo-2-(4-methoxyphenyl)-1H-indole-3-carbonitrile]",,,,,,,,,> 10000 nM,2.36,> 10000 nM,> 10000 nM,333 nM,> 10000 nM,233 nM,220 nM,> 10000 nM,,
"N#Cc1cn(Cc2ccccc2)c2c(Cl)cccc12 [Compound 13a, 1-Benzyl-7-chloro-1H-indole-3-carbonitrile]",78%,144%,127%,102%,95%,97%,84%,95%,,,,,,,,,,,
"CN[C@@H]1C[C@H]2O[C@@](C)([C@@H]1OC)n1c3ccccc3c3c4c(c5c6ccccc6n2c5c31)C(=O)NC4 [Staurosporine, reference compound]",,,,,,,,,,,,,,,,,,,20%

# Second part, led by results:
remaining activity at 10 µM [1],remaining activity at 10 µM [2],remaining activity at 10 µM [3],remaining activity at 10 µM [4],remaining activity at 10 µM [5],remaining activity at 10 µM [6],remaining activity at 10 µM [7],remaining activity at 10 µM [8],IC50 [1],LLE [10],IC50 [2],IC50 [3],IC50 [4],IC50 [5],IC50 [6],IC50 [7],IC50 [8],Structure (SMILES),Residual Activity at 10 µM GSK3 [9],"viability at 3 days, 1 µM [11]"
74%,75%,124%,56%,75%,35%,43%,105%,,,,,,,,,,"Cc1cccc2c(C#N)c(-c3ccccc3)[nH]c12 [Compound 6e, 7-Methyl-2-phenyl-1H-indole-3-carbonitrile]",,
,,,,,,,,> 10000 nM,2.57,> 10000 nM,> 10000 nM,4900 nM,> 10000 nM,3900 nM,4000 nM,> 10000 nM,"N#Cc1c(CCC2OCCCO2)[nH]c2c(Cl)cccc12 [Compound 6l, 2-(2-(1,3-Dioxan-2-yl)ethyl)-7-chloro-1H-indole-3-carbonitrile]",,
,,,,,,,,633 nM,2.41,> 10000 nM,> 10000 nM,633 nM,3300 nM,210 nM,290 nM,> 10000 nM,"COc1cccc(-c2[nH]c3c(I)cccc3c2C#N)c1 [Compound 6o, 7-Iodo-2-(3-methoxyphenyl)-1H-indole-3-carbonitrile]",,
47%,117%,97%,56%,70%,32%,30%,95%,,,,,,,,,,"Cn1cc(C#N)c2cccc(Cl)c21 [Compound 13c, 7-Chloro-1-methyl-1H-indole-3-carbonitrile]",,
